In brackets after ≈: the same amount, converted by molar mass.
Columns and labels:
Haemonchus contortus [1] = experiment: Anti-helmintic activity against third-stage Haemonchus contortus larvae assessed as inhibition of xL3 motility measured after 72 hrs; format: functional, organism-based
Haemonchus contortus [2] = experiment: Anti-helmintic activity against fourth stage of Haemonchus contortus larvae assessed as reduction in development of L4 stage incubated for 72 hrs followed by reincubation in humidified environment for 4 days; format: functional, organism-based
MCF-10A = experiment: Cytotoxicity against human MCF-10A cells assessed as inhibition of cell viability measured after 48 hrs by DAPI staining based analysis
[3] = Cytotoxicity against human MCF-10A cells assessed as inhibition of cell viability at 50 uM measured after 48 hrs by DAPI staining based analysis; settings: read-out: INH
[4] = Half life in mouse liver microsomes at 0.5 uM measured upto 60 mins in presence of NADPH; format: ADME, Microsome
[5] = Intrinsic clearence in mouse liver microsomes at 0.5 uM measured upto 60 mins in presence of NADPH measured per mg protein; format: ADME, Microsome; settings: read-out: CLH
[6] = Intrinsic clearence in human liver microsomes at 0.5 uM measured upto 60 mins in presence of NADPH measured per mg protein; format: ADME, Microsome; settings: read-out: CLH
[7] = Kinetic solubility of the compound in 0.01M HCl at pH 2.0 incubated for 30 mins by nephelometry; format: physicochemical; settings: read-out: Kinetic_solubility
[8] = Kinetic solubility of the compound in phosphate buffer pH 6.5 incubated for 30 mins by nephelometry; format: physicochemical; settings: read-out: Kinetic_solubility
[9] = Half life in human liver microsomes at 0.5 uM measured upto 60 mins in presence of NADPH; format: ADME, Microsome
[10] = Haemonchus contortus, 72 h, read-out: IC50

Row | Compound | IC50 (Haemonchus contortus [1]; [10]) [µM] | IC50 (Haemonchus contortus [2]) [µM] | IC50 (MCF-10A) [µM] | cytotoxicity at 48 h, 50 µM [3] [%] | further results
1 | O=C(Nc1ccc(Cl)cc1)N1CCC[C@H]1c1nc(-c2ccc(O)cc2)no1 | > 100 | > 100 | – | – | –
2 | Cc1cccc(-c2noc([C@@H]3CCCN3C(=O)Nc3ccc(Cl)cc3)n2)c1 | 1.9 | > 100 | > 50 | 29 | –
3 | COc1cccc(-c2noc([C@@H]3CCCN3C(=O)Nc3ccc(Cl)cc3)n2)c1 | > 100 | > 100 | – | – | –
4 | COc1cccc(NC(=O)N2CCC[C@H]2c2nc(-c3ccccc3)no2)c1 | > 100 | > 100 | – | – | –
5 | O=C(Nc1cccc(Cl)c1)N1CCC[C@H]1c1nc(-c2ccccc2)no1 | > 100 | > 100 | – | – | –
6 | O=C(Nc1ccc(Cl)cc1)N1CCC[C@H]1c1nc(-c2cccc(F)c2)no1 | 8.1 | 18 | > 50 | 22 | –
7 | O=C(Nc1ccccc1Cl)N1CCC[C@H]1c1nc(-c2ccccc2)no1 | > 100 | > 100 | – | – | –
8 | CN(C)S(=O)(=O)c1ccc(NC(=O)N2CCC[C@H]2c2nc(-c3ccccc3)no2)cc1 | > 100 | > 100 | – | – | –
9 | O=C(Nc1ccc(Br)cc1)N1CCC[C@H]1c1nc(-c2ccccc2)no1 | 1.8 | 12 | > 50 | 20 | –
10 | O=C(Nc1ccccc1O)N1CCC[C@H]1c1nc(-c2ccccc2)no1 | > 100 | > 100 | – | – | –
11 | O=C(Nc1ccc(O)cc1)N1CCC[C@H]1c1nc(-c2ccccc2)no1 | > 100 | > 100 | – | – | –
12 | O=C(Nc1ccc(Cl)cc1)N1CCC[C@H]1c1nc(-c2ccccc2)no1 | 5.3 | 21 | > 50 | 7.5 | half-life at 0.5 µM [4]: 20 min; microsomal CLint at 0.5 µM [5]: 89 µL/min/mg; microsomal CLint at 0.5 µM [6]: 19 µL/min/mg; solubility kinetic at 0.5 h [7]: 1.6 µg/mL (≈ 4.34 µM); solubility kinetic at 0.5 h [8]: 1.6 µg/mL (≈ 4.34 µM); half-life at 0.5 µM [9]: 93 min
13 | N#Cc1ccccc1NC(=O)N1CCC[C@H]1c1nc(-c2ccccc2)no1 | > 100 | > 100 | – | – | –
14 | Cc1ccc(NC(=O)N2CCC[C@H]2c2nc(-c3ccccc3)no2)cc1 | > 100 | > 100 | – | – | –
15 | O=C(Nc1ccc(I)cc1)N1CCC[C@H]1c1nc(-c2ccccc2)no1 | 5.6 | 3.2 | > 50 | 8 | –
16 | C[C@](C#N)(COc1cc(C#N)ccc1C(F)(F)F)NC(=O)c1ccc(SC(F)(F)F)cc1 [MONEPANTEL] | 0.16 | 0.075 | 26.9 | 99 | –
17 | O=C(Nc1ccc(Cl)cc1)N1CCC[C@H]1c1nc(-c2cccc(Cl)c2)no1 | 3 | 7.6 | > 50 | 17 | –
18 | CS(=O)(=O)c1ccc(NC(=O)N2CCC[C@H]2c2nc(-c3ccccc3)no2)cc1 | > 100 | > 100 | – | – | –
19 | O=C(Nc1ccc(Cl)cc1)N1CCC[C@H]1c1nc(-c2cccc(O)c2)no1 | 0.78 | 22.4 | > 50 | 32 | –
20 | COc1ccc(NC(=O)N2CCC[C@H]2c2nc(-c3ccccc3)no2)cc1 | > 100 | > 100 | – | – | –
21 | N#Cc1cccc(-c2noc([C@@H]3CCCN3C(=O)Nc3ccc(Cl)cc3)n2)c1 | > 100 | > 100 | > 50 | 16 | –
22 | O=C(Nc1ccc(Cl)cc1)N1CCC[C@H]1c1nc(-c2ccc(Cl)cc2)no1 | 1.5 | 20 | > 50 | 22 | –
23 | O=C(Nc1ccc(Cl)cc1)N1CCC[C@H]1c1nc(-c2ccc(I)cc2)no1 | – | 50 | > 50 | 23 | IC50 (Haemonchus contortus [1]): Active
24 | O=C(Nc1ccccc1)N1CCC[C@H]1c1nc(-c2ccccc2)no1 | > 100 | > 100 | – | – | –
25 | CC(=O)c1ccc(NC(=O)N2CCC[C@H]2c2nc(-c3ccccc3)no2)cc1 | > 100 | > 100 | – | – | –
26 | O=C(Nc1ccc(Cl)cc1)N1CCC[C@H]1c1nc(-c2ccccc2Br)no1 | 12 | 22 | > 50 | 30 | –
27 | O=C(Nc1ccc(Cl)cc1)N1CCC[C@H]1c1nc(-c2ccccc2Cl)no1 | 9.2 | 20 | > 50 | 40 | –
28 | O=C(Nc1ccc(F)cc1)N1CCC[C@H]1c1nc(-c2ccccc2)no1 | > 100 | > 100 | – | – | –
29 | CC(=O)c1cccc(NC(=O)N2CCC[C@H]2c2nc(-c3ccccc3)no2)c1 | > 100 | > 100 | – | – | –
30 | Cc1ccc(-c2noc([C@@H]3CCCN3C(=O)Nc3ccc(Cl)cc3)n2)cc1 | – | 50 | > 50 | 47 | IC50 (Haemonchus contortus [1]): Active
